Test system: Citrobacter rodentium
Assay: Functionality assay (antimicrobial activity, killing of bacteria)
Assay type: cell-based
Procedure: One skilled in the art will appreciate that similar methods can be used to confirm the functionality of any AMP of interest, such as a defensin. The OD600 of a Citrobacter rodentium overnight culture was measured and a dilution series was performed. 100 μl of a 7.1×10^2 bacteria/ml dilution was used in the functionality assay. […] For LL37, the positive control had 20 μM pure synthetic LL37 (Microchem Facility, Emory) added, and LL37 peptide obtained in Example 2 was added at 8.5 μg (250 μl) or 17 μg (500 μl) (FIG. 3). 20 μM concentration of the synthetic peptides equals 8.8 μg added.

[1] = CRAMP peptide of Example 2 at 30 μM or 53 μM, positive control 50 μM CRAMP (Sigma Genosys), FIG. 2

| Substance | efficiency in killing Citrobacter rodentium compared with commercially available peptide (LL37 peptide of Example 2 at 8.5 μg (250 μl) or 17 μg (500 μl), positive control 20 μM synthetic LL37, FIG. 3) | efficiency in killing Citrobacter rodentium compared with commercially available peptide [1] |
| --- | --- | --- |
| LL37: human cathelicidin LL37 plus N-terminal His and Met, released by sumoase from His tag-SUMO-LL37 (HMLLGDFFRKSKEKIGKEFKRIVQRIKDFLRNLVPRTES; resulting peptide when SEQ ID NO 40 treated with sumoase.) | almost as efficient in killing Citrobacter rodentium as the commercially available peptide |  |
| CRAMP-FLAG-tag: CRAMP with C-terminal FLAG tag, released by sumoase from His tag-SUMO-CRAMP-FLAG-tag (HMGLLRKGGEKIGEKLKKIGQKIKNFFQKLVPQPEQDYKDDDDKG; C-terminal FLAG tag; Resulting peptide when SEQ ID NO 45 treated with sumoase) |  | decrease in efficacy |
| CRAMP: mouse cathelicidin-related antimicrobial peptide, active last 34 aa, released by sumoase from recombinant His tag-SUMO-CRAMP (HMGLLRKGGEKIGEKLKKIGQKIKNFFQKLVPQPEQ; resulting protein when SEQ ID NO 47 treated with sumoase) |  | almost as efficient in killing Citrobacter rodentium as the commercially available peptide |

Reference: US20100048480A1, “PRODUCTION OF ANTI-MICROBIAL PEPTIDES” (priority 2006, published 2010)
